According to patent publication US11285156B2, “Substituted piperazines as KRAS G12C inhibitors” (Amgen Inc., priority 2018, dated 2022):
Read-outs that look alike come from different tables or passages of the source.

What was measured:
[1] = biological target: GDP-bound KRAS protein (aa 1-169), containing both G12C and C118A amino acid substitutions (Homo sapiens (Human), UniProt P01116, C118A/G12C); experiment: Coupled nucleotide exchange assay (SOS-mediated nucleotide exchange, AlphaScreen); type: biochemical; conditions: 5 min compound pre-incubation; for IC50: read-out: Coupled exchange IC50 (5 min; μM)
Chain of GDP-bound KRAS protein (aa 1-169), containing both G12C and C118A amino acid substitutions (P01116 other isoform, or with tags, fused parts or gaps G12C/C118A): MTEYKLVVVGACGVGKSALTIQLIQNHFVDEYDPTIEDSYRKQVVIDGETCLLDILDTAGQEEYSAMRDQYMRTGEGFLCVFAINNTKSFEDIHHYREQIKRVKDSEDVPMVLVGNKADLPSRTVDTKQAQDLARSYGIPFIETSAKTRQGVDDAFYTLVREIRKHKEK

[2] = tested on: Phosphorylation of ERK1/2 in MIA PaCa-2 cells; experiment: Phospho-ERK1/2 MSD assay in MIA PaCa-2 cells; type: cell-based; conditions: read-out: p-ERK IC50 (2 h, MiaPaCa-2; μM)
How it was run: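 Phospho-ERK1/2 measured by MSD electrochemiluminescence kit in RIPA lysates of MIA PaCa-2 cells. Cells were treated with compound titrations for 2 or 4 h at 37 °C, 5% CO2, followed by a 10 min pulse of 10 ng/mL EGF.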

[3] = tested on: Phosphorylation of ERK1/2 in A549 cells; experiment: Phospho-ERK1/2 MSD assay in A549 cells; type: cell-based; conditions: read-out: p-ERK IC50 (2 h, A549; μM)
How it was run: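 Phospho-ERK1/2 was quantified by MSD immunoassay in RIPA lysates of MIA PaCa-2 or A549 cells. Before lysis, cells received 10 ng/mL EGF for 10 min after 2 or 4 h exposure at 37° C. to a compound concentration series.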

[4] = Homo sapiens, MIA PaCa-2, 2 h, 2 h compound treatment, MIA PaCa-2 cells, EGF stimulated
[5] = Homo sapiens, A549, 2 h, 2 h compound treatment, A549 cells, EGF stimulated

Coupled exchange IC50 (5 min; μM) [1] [µM] | IC50 ([2]; 2 h compound treatment, MIA PaCa-2 cells, EGF stimulated) [µM] | IC50 ([3]; 2 h compound treatment, A549 cells, EGF stimulated) [µM] | SMILES | IC50 [1] [µM] | IC50 [2, 4] [µM] | IC50 [3, 5] [µM] | IC50 ([2]; Homo sapiens, MIA PaCa-2, 2 h) [µM] | IC50 ([3]; Homo sapiens, A549, 2 h) [µM]
 |  |  | C=CC(=O)N1C[C@H](C)N(c2nc(=O)n(-c3c(C(C)C)nc(CN4CCN(C)CC4)nc3C(C)C)c3nc(-c4ccccc4F)c(Cl)cc23)C[C@H]1C [Example 170, 6-Chloro-1-[4,6-diisopropyl-2-[(4-methylpiperazin-1-yl)methyl]pyrimidin-5-yl]-4-[(2S,5R)-2,5-dimethyl-4-prop-2-enoyl-piperazin-1-yl]-7-(2-fluorophenyl)pyrido[2,3-d]pyrimidin-2-one] | 0.064 | 0.077 | > 7.5 |  | 
 |  |  | C=CC(=O)N1C[C@H](C)N(c2nc(=O)n(-c3c(C(C)C)ncnc3C(C)C)c3nc(-c4ccccc4C(F)(F)F)c(Cl)cc23)C[C@H]1C [Example 172, 6-Chloro-1-(4,6-diisopropylpyrimidin-5-yl)-4-[(2S,5R)-2,5-dimethyl-4-prop-2-enoyl-piperazin-1-yl]-7-[2-(trifluoromethyl)phenyl]pyrido[2,3-d]pyrimidin-2-one] | 0.08 | 0.099 | > 7.5 |  | 
0.069 |  |  | C=CC(=O)N1C[C@H](C)N(c2nc(=O)n(-c3c(C(C)C)ncnc3C(C)C)c3nc(-c4cc(O)ccc4C)c(Cl)cc23)C[C@H]1C [Example 174, 6-Chloro-1-(4,6-diisopropylpyrimidin-5-yl)-4-[(2S,5R)-2,5-dimethyl-4-prop-2-enoyl-piperazin-1-yl]-7-(5-hydroxy-2-methyl-phenyl)pyrido[2,3-d]pyrimidin-2-one] |  | 0.082 | > 7.5 |  | 
 |  |  | C=CC(=O)N1CCN(c2nc(CN3CCOCC3)c(-c3ccccc3C(C)C)c3nc(-c4ccccc4F)c(Cl)cc23)CC1 [Example 181, 1-(4-(3-Chloro-2-(2-fluorophenyl)-8-(2-isopropylphenyl)-7-(morpholinomethyl)-1,6-naphthyridin-5-yl)piperazin-1-yl)prop-2-en-1-one] | 4.53 | 10 | > 7.5 |  | 
 |  |  | C=CC(=O)N1C[C@H](C)N(c2nc(=N)n(-c3ccccc3C(C)C)c3nc(-c4ccccc4F)c(Cl)cc23)C[C@H]1C [Example 185, 1-((2R,5S)-4-(6-Chloro-7-(2-fluorophenyl)-2-imino-1-(2-isopropylphenyl)-1,2-dihydropyrido[2,3-d]pyrimidin-4-yl)-2,5-dimethylpiperazin-1-yl)prop-2-en-1-one] | 0.055 | 0.08 | > 7.5 |  | 
 |  |  | C=CC(=O)N1C[C@H](C)N(c2nc(=O)n(-c3ccccc3C(C)C)c3nc(-c4ccccc4F)c(Cl)cc23)C[C@H]1C [Example 186, 4-((2S,5R)-4-Acryloyl-2,5-dimethylpiperazin-1-yl)-6-chloro-7-(2-fluorophenyl)-1-(2-isopropylphenyl)pyrido[2,3-d]pyrimidin-2(1H)-one] | 0.093 | 0.199 | > 7.5 |  | 
0.09 |  |  | C=CC(=O)N1C[C@H](C)N(c2nc(=O)n(-c3c(C(C)C)nc(N(C)C(C)=O)nc3C(C)C)c3nc(-c4ccccc4F)c(Cl)cc23)C[C@H]1C [Example 187, N-[5-[6-Chloro-4-[(2S,5R)-2,5-dimethyl-4-prop-2-enoyl-piperazin-1-yl]-7-(2-fluorophenyl)-2-oxo-pyrido[2,3-d]pyrimidin-1-yl]-4,6-diisopropyl-pyrimidin-2-yl]-N-methyl-acetamide] |  | 0.081 | 0.317 |  | 
0.038 |  |  | C=CC(=O)N1C[C@H](C)N(c2nc(=O)n(-c3c(C(C)C)nc(NC(C)=O)nc3C(C)C)c3nc(-c4ccccc4F)c(Cl)cc23)C[C@H]1C [Example 188, N-[5-[6-Chloro-4-[(2S,5R)-2,5-dimethyl-4-prop-2-enoyl-piperazin-1-yl]-7-(2-fluorophenyl)-2-oxo-pyrido[2,3-d]pyrimidin-1-yl]-4,6-diisopropyl-pyrimidin-2-yl]acetamide] |  | 0.04 | 4.98 |  | 
 |  |  | C=CC(=O)N1C[C@H](C)N(c2nc(=O)n(-c3c(N)ncnc3C(C)C)c3nc(-c4ccccc4F)c(Cl)cc23)C[C@H]1C [Example 189, 4-((2S,5R)-4-Acryloyl-2,5-dimethylpiperazin-1-yl)-1-(4-amino-6-isopropylpyrimidin-5-yl)-6-chloro-7-(2-fluorophenyl)pyrido[2,3-d]pyrimidin-2(1H)-one] | 0.158 | 0.209 | > 7.5 |  | 
0.126 |  |  | C=CC(=O)N1C[C@H](C)N(c2nc(=O)n(-c3c(N)ncnc3C(C)C)c3nc(-c4c(O)cccc4F)c(Cl)cc23)C[C@H]1C [Example 190, 4-((2S,5R)-4-Acryloyl-2,5-dimethylpiperazin-1-yl)-1-(4-amino-6-isopropylpyrimidin-5-yl)-6-chloro-7-(2-fluoro-6-hydroxyphenyl)pyrido[2,3-d]pyrimidin-2(1H)-one] |  | 1.71 | > 7.5 |  | 
0.029 |  |  | C=CC(=O)N1C[C@H](C)N(c2nc(=O)n(-c3c(N)ncnc3C(C)C)c3nc(-c4c(N)cccc4F)c(Cl)cc23)C[C@H]1C [Example 192, 4-((2S,5R)-4-Acryloyl-2,5-dimethylpiperazin-1-yl)-7-(2-amino-6-fluorophenyl)-1-(4-amino-6-isopropylpyrimidin-5-yl)-6-chloropyrido[2,3-d]pyrimidin-2(1H)-one] |  | 0.161 | > 7.5 |  | 
 |  |  | C=CC(=O)N1C[C@H](C)N(c2nc(=O)n(-c3c(C)nc(C)nc3C(C)C)c3nc(-c4ccccc4F)c(Cl)cc23)C[C@H]1C [Example 193, 4-((2S,5R)-4-Acryloyl-2,5-dimethylpiperazin-1-yl)-6-chloro-7-(2-fluorophenyl)-1-(4-isopropyl-2,6-dimethylpyrimidin-5-yl)pyrido[2,3-d]pyrimidin-2(1H)-one] | 0.056 | 0.055 | > 7.5 |  | 
 |  |  | C=CC(=O)N1C[C@H](C)N(c2nc(=O)n(-c3c(C)ncnc3C(C)C)c3nc(-c4ccccc4F)c(Cl)cc23)C[C@H]1C [Example 194, 4-((2S,5R)-4-Acryloyl-2,5-dimethylpiperazin-1-yl)-6-chloro-7-(2-fluorophenyl)-1-(4-isopropyl-6-methylpyrimidin-5-yl)pyrido[2,3-d]pyrimidin-2(1H)-one] | 0.186 | 0.048 | > 7.5 |  | 
 |  |  | C=CC(=O)N1C[C@H](C)N(c2nc(=O)n(-c3c(C(C)C)cnnc3C(C)C)c3nc(-c4ccccc4F)c(Cl)cc23)C[C@H]1C [Example 205, 4-((2S,5R)-4-Acryloyl-2,5-dimethylpiperazin-1-yl)-6-chloro-1-(3,5-diisopropylpyridazin-4-yl)-7-(2-fluorophenyl)pyrido[2,3-d]pyrimidin-2(1H)-one] | 0.08 | 0.095 | > 7.5 |  | 
0.098 | 0.139 | > 7.5 | C=CC(=O)N1[C@H](C)CN(c2nc(=O)n(-c3c(C(C)C)cnnc3C(C)C)c3nc(-c4ccccc4F)c(Cl)cc23)C[C@@H]1C [Example 206-2, 4-(cis-4-Acryloyl-3,5-dimethylpiperazin-1-yl)-6-chloro-1-(3,5-diisopropylpyridazin-4-yl)-7-(2-fluorophenyl)pyrido[2,3-d]pyrimidin-2(1H)-one] |  |  |  |  | 
0.231 |  |  | C=CC(=O)N1C[C@H](C)N(c2nc(=O)n(-c3ccc(S(C)(=O)=O)cc3C(C)C)c3nc(-c4ccccc4F)c(Cl)cc23)C[C@H]1C [Example 208, 4-((2S,5R)-4-Acryloyl-2,5-dimethylpiperazin-1-yl)-6-chloro-7-(2-fluorophenyl)-1-(2-isopropyl-4-(methylsulfonyl)phenyl)pyrido[2,3-d]pyrimidin-2(1H)-one] |  | 0.14 | > 7.5 |  | 
0.049 |  |  | C=CC(=O)N1C[C@H](C)N(c2nc(=O)n(-c3c(C)ccnc3C(C)C)c3nc(-c4ccccc4S(C)(=O)=O)c(Cl)cc23)C[C@H]1C [Example 210, 4-((2S,5R)-4-Acryloyl-2,5-dimethylpiperazin-1-yl)-6-chloro-1-(2-isopropyl-4-methylpyridin-3-yl)-7-(2-(methylsulfonyl)phenyl)pyrido[2,3-d]pyrimidin-2(1H)-one] |  | 0.039 | > 7.5 |  | 
 |  |  | C=CC(=O)N1C[C@H](C)N(c2nc(=O)n(-c3c(C)cc([S+](C)[O-])cc3C(C)C)c3nc(-c4ccccc4C)c(Cl)cc23)C[C@H]1C (stereo partly drawn) [Example 213, 4-((2S,5R)-4-Acryloyl-2,5-dimethylpiperazin-1-yl)-6-chloro-1-(2-isopropyl-6-methyl-4-(methylsulfinyl)phenyl)-7-(o-tolyl)pyrido[2,3-d]pyrimidin-2(1H)-one] | 0.182 | 0.104 | > 7.5 |  | 
 |  |  | C=CC(=O)N1C[C@H](C)N(C2=NC(=O)CN(c3c(C)ccnc3C(C)C)c3nc(-c4ccccc4F)c(Cl)cc32)C[C@H]1C [Example 218, 5-((2S,5R)-4-Acryloyl-2,5-dimethylpiperazin-1-yl)-7-chloro-8-(2-fluorophenyl)-1-(2-isopropyl-4-methylpyridin-3-yl)-1,2-dihydro-3H-pyrido[2,3-e][1,4]diazepin-3-one] | 0.094 |  |  | 0.035 | > 7.5
